Data reported in ChEMBL document CHEMBL1138365, “Application of 3D-QSAR for identification of descriptors defining bioactivity of antimicrobial peptides” (2007).
Converted amounts (≈) assume the structure as drawn. Starred links: 1 amine or outer side, 2 acyl side, 3 side chain; linkers in the order of their positions; H or OH if unused. Non-standard residues stand in square brackets, D forms with d. Residues, ends and D or L forms follow the SMILES beside them. ξ: configuration not given here. Pro(3ξ,4ξ-(CH2)4) = O=C(O)[C@H]1NCC2CCCCC21; Phe(4-F) = N[C@@H](Cc1ccc(F)cc1)C(=O)O; X1 = O=C([C@H]1C2CCCCC2CN1[*:1])[*:2]; Tic = O=C(O)[C@@H]1Cc2ccccc2CN1; dTic = O=C(O)[C@H]1Cc2ccccc2CN1; ξTic = O=C(O)C1Cc2ccccc2CN1; dOrn = NCCC[C@@H](N)C(=O)O; Orn = NCCC[C@H](N)C(=O)O; Ahx = NCCCCCC(=O)O; GABA = NCCCC(=O)O; βAla = NCCC(=O)O

Assays:
[1] = system: Mycolicibacterium fortuitum; test: Antibacterial activity against Mycobacterium ranae; type: functional
[2] = system: Staphylococcus aureus; test: Antibacterial activity against Staphylococcus aureus; type: functional

Structure (SMILES): CC(=O)NCC(=O)N[C@@H](Cc1ccccc1)C(=O)N1Cc2ccccc2C[C@H]1C(=O)N1CC2CCCCC2[C@H]1C(=O)NCC(=O)N[C@@H](CCCCN)C(=O)N1Cc2ccccc2C[C@H]1C(=O)N1CC2CCCCC2[C@H]1C(=O)NCC(=O)N[C@@H](Cc1ccccc1)C(=O)N1Cc2ccccc2C[C@H]1C(=O)N1CC2CCCCC2[C@H]1C(=O)NCC(=O)N[C@@H](CCCCN)C(=O)N1Cc2ccccc2C[C@H]1C(=O)N[C@@H](CCCCN)C(=O)N[C@@H](CCCCN)C(=O)N[C@@H](CCCCN)C(=O)N[C@@H](CCCCN)C(=O)N[C@@H](CCCCN)C(N)=O (some centres undefined) (Ac-GF[Tic][Pro(3ξ,4ξ-(CH2)4)]GK[Tic][Pro(3ξ,4ξ-(CH2)4)]GF[Tic][Pro(3ξ,4ξ-(CH2)4)]GK[Tic]KKKKK-NH2)
- MIC [1]: 3 µM (≈ 7.71 µg/mL)
- MIC [2]: 3 µM (≈ 7.71 µg/mL)

Structure (SMILES): CC(=O)NCC(=O)N[C@@H](Cc1ccccc1)C(=O)N1Cc2ccccc2C[C@H]1C(=O)N1CC2CCCCC2[C@H]1C(=O)NCC(=O)N[C@@H](CCCCN)C(=O)N1Cc2ccccc2C[C@H]1C(=O)N1CC2CCCCC2[C@H]1C(=O)NCC(=O)N[C@@H](Cc1ccccc1)C(=O)N1Cc2ccccc2C[C@H]1C(=O)N1CC2CCCCC2[C@H]1C(=O)NCC(=O)N[C@@H](CCCCN)C(=O)N1Cc2ccccc2C[C@H]1C(=O)N[C@@H](CCCN)C(=O)N[C@@H](CCCN)C(=O)N[C@@H](CCCN)C(=O)N[C@@H](CCCN)C(N)=O (some centres undefined) (Ac-GF[Tic][Pro(3ξ,4ξ-(CH2)4)]GK[Tic][Pro(3ξ,4ξ-(CH2)4)]GF[Tic][Pro(3ξ,4ξ-(CH2)4)]GK[Tic][Orn][Orn][Orn][Orn]-NH2)
- MIC [1]: 10 µM (≈ 23.8 µg/mL)
- MIC [2]: 10 µM (≈ 23.8 µg/mL)

Structure (SMILES): CC(=O)NCC(=O)N[C@@H](Cc1ccccc1)C(=O)N1Cc2ccccc2C[C@H]1C(=O)N1CC2CCCCC2[C@@H]1C(=O)NCC(=O)N[C@H](CCCN)C(=O)N1Cc2ccccc2C[C@@H]1C(=O)N1CC2CCCCC2[C@H]1C(=O)NCC(=O)N[C@H](Cc1ccccc1)C(=O)N1Cc2ccccc2C[C@@H]1C(=O)N1CC2CCCCC2[C@@H]1C(=O)NCC(=O)N[C@H](CCCN)C(=O)N1Cc2ccccc2C[C@@H]1C(=O)N[C@H](CCCN)C(=O)N[C@H](CCCN)C(=O)N[C@H](CCCN)C(=O)N[C@H](CCCN)C(N)=O (some centres undefined) (Ac-GF[Tic][X1]G[dOrn][dTic][Pro(3ξ,4ξ-(CH2)4)]G[dF][dTic][X1]G[dOrn][dTic][dOrn][dOrn][dOrn][dOrn]-NH2)
- MIC [1]: 10 µM (≈ 23.6 µg/mL)
- MIC [2]: 3 µM (≈ 7.07 µg/mL)

Structure (SMILES): CC(=O)NCC(=O)N[C@@H](Cc1ccc(F)cc1)C(=O)N1Cc2ccccc2C[C@H]1C(=O)N1CC2CCCCC2[C@H]1C(=O)NCC(=O)N[C@@H](CCCCN)C(=O)N1Cc2ccccc2C[C@H]1C(=O)N1CC2CCCCC2[C@H]1C(=O)NCC(=O)N[C@@H](Cc1ccc(F)cc1)C(=O)N1Cc2ccccc2C[C@H]1C(=O)N1CC2CCCCC2[C@H]1C(=O)NCC(=O)N[C@@H](CCCCN)C(=O)N1Cc2ccccc2C[C@H]1C(=O)N[C@@H](CCCCN)C(=O)N[C@@H](CCCCN)C(=O)N[C@@H](CCCCN)C(=O)N[C@@H](CCCCN)C(N)=O (some centres undefined) (Ac-G[Phe(4-F)][Tic][Pro(3ξ,4ξ-(CH2)4)]GK[Tic][Pro(3ξ,4ξ-(CH2)4)]G[Phe(4-F)][Tic][Pro(3ξ,4ξ-(CH2)4)]GK[Tic]KKKK-NH2)
- MIC [1]: 3 µM (≈ 7.43 µg/mL)
- MIC [2]: 10 µM (≈ 24.8 µg/mL)

Structure (SMILES): CC(=O)NCC(=O)N1Cc2ccccc2C[C@H]1C(=O)N1CC2CCCCC2[C@H]1C(=O)N[C@@H](CCCCN)C(=O)N1Cc2ccccc2C[C@H]1C(=O)N1CC2CCCCC2[C@H]1C(=O)NCC(=O)N1Cc2ccccc2CC1C(=O)N1CC2CCCCC2[C@H]1C(=O)N[C@@H](CCCCN)C(=O)N1Cc2ccccc2C[C@H]1C(=O)N[C@@H](CCCCN)C(=O)N[C@@H](CCCCN)C(=O)N[C@@H](CCCCN)C(=O)N[C@@H](CCCCN)C(N)=O (some centres undefined) (Ac-G[Tic][Pro(3ξ,4ξ-(CH2)4)]K[Tic][Pro(3ξ,4ξ-(CH2)4)]G[ξTic][Pro(3ξ,4ξ-(CH2)4)]K[Tic]KKKK-NH2)
- MIC [1]: 3 µM (≈ 6.1 µg/mL)
- MIC [2]: 10 µM (≈ 20.3 µg/mL)

Structure (SMILES): CC(=O)NCCCCCC(=O)N[C@@H](Cc1ccccc1)C(=O)N1Cc2ccccc2C[C@H]1C(=O)N1CC2CCCCC2[C@H]1C(=O)NCCCCCC(=O)N[C@@H](CCCCN)C(=O)N1Cc2ccccc2C[C@H]1C(=O)N1CC2CCCCC2[C@H]1C(=O)NCCCCCC(=O)N[C@@H](Cc1ccccc1)C(=O)N1Cc2ccccc2C[C@H]1C(=O)N1CC2CCCCC2[C@H]1C(=O)NCCCCCC(=O)N[C@@H](CCCCN)C(=O)N1Cc2ccccc2C[C@H]1C(=O)N[C@@H](CCCCN)C(=O)N[C@@H](CCCCN)C(=O)N[C@@H](CCCCN)C(=O)N[C@@H](CCCCN)C(N)=O (some centres undefined) (Ac-[Ahx]F[Tic][Pro(3ξ,4ξ-(CH2)4)][Ahx]K[Tic][Pro(3ξ,4ξ-(CH2)4)][Ahx]F[Tic][Pro(3ξ,4ξ-(CH2)4)][Ahx]K[Tic]KKKK-NH2)
- MIC [1]: 3 µM (≈ 8 µg/mL)
- MIC [2]: 10 µM (≈ 26.7 µg/mL)

Structure (SMILES): CC(=O)NCCCC(=O)N[C@@H](Cc1ccccc1)C(=O)N1Cc2ccccc2C[C@H]1C(=O)N1CC2CCCCC2[C@H]1C(=O)NCCCC(=O)N[C@@H](CCCCN)C(=O)N1Cc2ccccc2C[C@H]1C(=O)N1CC2CCCCC2[C@H]1C(=O)NCCCC(=O)N[C@@H](Cc1ccccc1)C(=O)N1Cc2ccccc2C[C@H]1C(=O)N1CC2CCCCC2[C@H]1C(=O)NCCCC(=O)N[C@@H](CCCCN)C(=O)N1Cc2ccccc2C[C@H]1C(=O)N[C@@H](CCCCN)C(=O)N[C@@H](CCCCN)C(=O)N[C@@H](CCCCN)C(=O)N[C@@H](CCCCN)C(N)=O (some centres undefined) (Ac-[GABA]F[Tic][Pro(3ξ,4ξ-(CH2)4)][GABA]K[Tic][Pro(3ξ,4ξ-(CH2)4)][GABA]F[Tic][Pro(3ξ,4ξ-(CH2)4)][GABA]K[Tic]KKKK-NH2)
- MIC [1]: 10 µM (≈ 25.5 µg/mL)
- MIC [2]: 100 µM (≈ 255 µg/mL)

Structure (SMILES): CC(=O)NCCCC(=O)N[C@@H](Cc1ccccc1)C(=O)N1Cc2ccccc2C[C@H]1C(=O)N1CC2CCCCC2[C@H]1C(=O)NCCCC(=O)N[C@@H](CCCCN)C(=O)N1Cc2ccccc2C[C@H]1C(=O)N1CC2CCCCC2[C@H]1C(=O)NCCCC(=O)N[C@@H](Cc1ccccc1)C(=O)N1Cc2ccccc2C[C@H]1C(=O)N1CC2CCCCC2[C@H]1C(=O)NCCCC(=O)N[C@@H](CCCCN)C(=O)N1Cc2ccccc2C[C@H]1C(=O)N[C@@H](CCCCN)C(=O)N[C@@H](CCCCN)C(=O)N[C@@H](CCCCN)C(=O)N[C@@H](CCCCN)C(=O)N[C@@H](CCCCN)C(N)=O (some centres undefined) (Ac-[GABA]F[Tic][Pro(3ξ,4ξ-(CH2)4)][GABA]K[Tic][Pro(3ξ,4ξ-(CH2)4)][GABA]F[Tic][Pro(3ξ,4ξ-(CH2)4)][GABA]K[Tic]KKKKK-NH2)
- MIC [1]: 3 µM (≈ 8.04 µg/mL)
- MIC [2]: 30 µM (≈ 80.4 µg/mL)

Structure (SMILES): CC(=O)NCCC(=O)N[C@@H](Cc1ccccc1)C(=O)N1Cc2ccccc2C[C@H]1C(=O)N1CC2CCCCC2[C@H]1C(=O)NCCC(=O)N[C@@H](CCCCN)C(=O)N1Cc2ccccc2C[C@H]1C(=O)N1CC2CCCCC2[C@H]1C(=O)NCCC(=O)N[C@@H](Cc1ccccc1)C(=O)N1Cc2ccccc2C[C@@H]1C(=O)N1CC2CCCCC2[C@H]1C(=O)NCCC(=O)N[C@@H](CCCCN)C(=O)N1Cc2ccccc2C[C@H]1C(=O)N[C@@H](CCCCN)C(=O)N[C@@H](CCCCN)C(=O)N[C@@H](CCCCN)C(=O)N[C@@H](CCCCN)C(N)=O (some centres undefined) (Ac-[βAla]F[Tic][Pro(3ξ,4ξ-(CH2)4)][βAla]K[Tic][Pro(3ξ,4ξ-(CH2)4)][βAla]F[dTic][Pro(3ξ,4ξ-(CH2)4)][βAla]K[Tic]KKKK-NH2)
- MIC [1]: 1 µM (≈ 2.5 µg/mL)
- MIC [2]: 10 µM (≈ 25 µg/mL)

Structure (SMILES): NCCCC[C@H](NC(=O)[C@H](CCCCN)NC(=O)[C@H](CCCCN)NC(=O)[C@H](CCCCN)NC(=O)[C@@H]1Cc2ccccc2CN1C(=O)[C@H](CCCCN)NC(=O)CNC(=O)[C@@H]1C2CCCCC2CN1C(=O)[C@@H]1Cc2ccccc2CN1C(=O)[C@H](Cc1ccccc1)NC(=O)CNC(=O)[C@@H]1C2CCCCC2CN1C(=O)[C@@H]1Cc2ccccc2CN1C(=O)[C@H](CCCCN)NC(=O)CNC(=O)[C@@H]1C2CCCCC2CN1C(=O)[C@@H]1Cc2ccccc2CN1C(=O)[C@H](Cc1ccccc1)NC(=O)CN)C(N)=O (some centres undefined) (H-GF[Tic][Pro(3ξ,4ξ-(CH2)4)]GK[Tic][Pro(3ξ,4ξ-(CH2)4)]GF[Tic][Pro(3ξ,4ξ-(CH2)4)]GK[Tic]KKKK-NH2)
- MIC [1]: 10 µM (≈ 24 µg/mL)
- MIC [2]: 10 µM (≈ 24 µg/mL)

Structure (SMILES): CC(C)C[C@H](NC(=O)[C@@H](N)CCCCN)C(=O)N1Cc2ccccc2C[C@H]1C(=O)N1CC2CCCCC2[C@H]1C(=O)NCC(=O)N[C@@H](CCCCN)C(=O)N1Cc2ccccc2C[C@H]1C(=O)N1CC2CCCCC2[C@H]1C(=O)NCC(=O)N[C@@H](Cc1ccccc1)C(=O)N1Cc2ccccc2C[C@H]1C(=O)N1CC2CCCCC2[C@H]1C(=O)NCC(=O)N[C@@H](CCCCN)C(=O)N1Cc2ccccc2C[C@H]1C(=O)N[C@@H](CCCCN)C(=O)N[C@@H](CCCCN)C(=O)N[C@@H](CCCCN)C(=O)N[C@@H](CCCCN)C(N)=O (some centres undefined) (H-KL[Tic][Pro(3ξ,4ξ-(CH2)4)]GK[Tic][Pro(3ξ,4ξ-(CH2)4)]GF[Tic][Pro(3ξ,4ξ-(CH2)4)]GK[Tic]KKKK-NH2)
- MIC [1]: 3 µM (≈ 7.31 µg/mL)
- MIC [2]: 30 µM (≈ 73.1 µg/mL)

Structure (SMILES): CC(C)C[C@H](NC(=O)[C@@H](N)CCCCN)C(=O)N1Cc2ccccc2C[C@H]1C(=O)N1CC2CCCCC2[C@H]1C(=O)N[C@@H](CCCCN)C(=O)N1Cc2ccccc2C[C@H]1C(=O)N1CC2CCCCC2[C@H]1C(=O)N[C@@H](Cc1ccccc1)C(=O)N1Cc2ccccc2C[C@H]1C(=O)N1CC2CCCCC2[C@H]1C(=O)N[C@@H](CCCCN)C(=O)N1Cc2ccccc2C[C@H]1C(=O)N1CC2CCCCC2[C@H]1C(=O)N[C@@H](Cc1ccccc1)C(=O)N1Cc2ccccc2C[C@H]1C(=O)N1CC2CCCCC2[C@H]1C(=O)N[C@@H](CCCCN)C(=O)N1Cc2ccccc2C[C@H]1C(=O)N1CC2CCCCC2[C@H]1C(=O)N[C@@H](CCCCN)C(=O)N[C@@H](CCCNC(=N)N)C(N)=O (some centres undefined) (H-KL[Tic][Pro(3ξ,4ξ-(CH2)4)]K[Tic][Pro(3ξ,4ξ-(CH2)4)]F[Tic][Pro(3ξ,4ξ-(CH2)4)]K[Tic][Pro(3ξ,4ξ-(CH2)4)]F[Tic][Pro(3ξ,4ξ-(CH2)4)]K[Tic][Pro(3ξ,4ξ-(CH2)4)]KR-NH2)
- MIC [1]: 30 µM (≈ 92.5 µg/mL)
- MIC [2]: 10 µM (≈ 30.8 µg/mL)
